The text below walks through data of US9265795B2, “Cellular compositions for use in therapy” (RENEURON LIMITED, priority 2008, dated 2016).

The test concerns neural stem cell line, CTX0E03. Put plainly: Hypothermic / ambient shelf-life viability studies (trypan blue exclusion). The test is classed as cell-based, human. The note with it: in saline solution at ambient temperature. The method, then:
Cultures of cells were expanded in T-flasks until 70 to 90% confluent. The spent medium was aspirated and then the cell monolayer washed with HBSS without magnesium or calcium ions (Invitrogen). The wash was aspirated and then the cells dissociated with recombinant bovine trypsin (Lonza TrypZean/EDTA) for 5 minutes at 37° C. The dissociated cell suspension was mixed with a trypsin inhibitor solution (0.55 mg/ml soybean trypsin inhibitor [Sigma], 1% HSA [Grifols], 25 U/ml benzon nuclease [VWR] in DMEM:F12 [Invitrogen]) and centrifuged for 5 minutes at ˜500×g. The supernatant was aspirated and the cell pellet washed in 50% HypoThermosol®-FRS (BioLife Solutions, Inc) in DMEM:F12 followed by centrifugation at ˜500×g for 5 minutes. The cell pellet was then suspended in HypoThermosol®-FRS at a concentration of 40,000 to 60,000 cells/μl. […]
Shelf-life studies have assessed the viability of the therapeutic and commercially manufactured neural stem cell line, CTX0E03 (Pollock et al., 2006), formulated in saline or using the method described in this invention using HTS-FRS. […]
Samples of cells were mixed 1:1 with 0.4% Trypan blue (Sigma) and loaded onto a haemocytometer. […] The viability and concentration of the sample is determined by counting the cells within a grid of the haemocytometer using 10× objective phase-contrast microscopy.

As for `Cc1c(C)c2c(c(C)c1O)CCC(C)(C(=O)O)O2` (stereo not shown) [Trolox], the “time neural stem cells are preserved” value is 2 days.
